This is an account of results in patent US12692261B2, “Substituted heterocyclic compounds and therapeutic uses thereof” (Bayer Aktiengesellschaft, priority 2020, dated 2026).

The target of assay [1] is T1, full-length human CSNK1A1 (Homo sapiens, UniProt P48729).
T1 construct: N-terminal Glutathion-S-Transferase (GST) and full-length human CSNK1A1; purchased Life Technologies PV4174; host or cells: baculovirus infected insect cells
In words: CSNK1A1 Assay 2 (ADP-Glo, 1 μM ATP, substrate biotin-Ahx-KRRRAL-pS-VASLPGL). It is filed as biochemical. As to conditions: Table 3, read-out: CSNK1A1 Assay 2 IC50 [mol/l] (median). An outline of the steps: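 Activity read as ADP generated (ADP-Glo luciferase luminescence, 1 h detection steps at 22 °C). Enzyme was insect-cell-expressed GST–full-length human CSNK1A1, compound-preincubated 15 min before reaction with phosphopeptide substrate and 1 μM ATP in 50 mM HEPES pH 7.5, 10 mM MgCl2.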

Assay [2] concerns the target T1, full-length human CSNK1A1. In words: CSNK1A1 High ATP Assay (ADP-Glo, 1 mM ATP).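 Further: 30 min kinase reaction at 22 °C with 100 µM peptide substrate.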 It is filed as biochemical. The conditions noted are these: Table 3, read-out: CSNK1A1 high ATP assay IC50 [mol/l] (median). An outline of the steps:
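Kinase activity taken as ADP generated, quantified by ADP-Glo luminescence after 1 h ATP depletion and 1 h detection at 22 °C. Enzyme is GST–full-length human CSNK1A1 (insect cell-expressed), pre-bound to compound for 15 min, with phosphopeptide substrate and 1 mM ATP.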

T1 sequence (P48729 whole entry): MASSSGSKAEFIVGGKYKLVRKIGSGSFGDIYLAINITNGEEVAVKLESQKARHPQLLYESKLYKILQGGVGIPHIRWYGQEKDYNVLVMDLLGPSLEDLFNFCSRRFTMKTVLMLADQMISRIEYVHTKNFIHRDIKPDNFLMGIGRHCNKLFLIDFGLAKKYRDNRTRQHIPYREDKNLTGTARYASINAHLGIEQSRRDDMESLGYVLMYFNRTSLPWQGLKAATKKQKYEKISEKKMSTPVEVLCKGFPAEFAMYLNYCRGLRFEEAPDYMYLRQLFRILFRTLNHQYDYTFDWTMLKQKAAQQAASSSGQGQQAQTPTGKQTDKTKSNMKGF

As for `CC(C)(O)c1cc(F)nc2c(-c3ccccn3)c(-c3ccnc(NC(=O)C(CC(F)F)c4ccc(F)cc4)c3)[nH]c12` (racemic) [Example 98, (2RS)-4,4-difluoro-N-{4-[5-fluoro-7-(2-hydroxypropan-2-yl)-3-(pyridin-2-yl)-1H-pyrrolo[3,2-b]pyridin-2-yl]pyridin-2-yl}-2-(4-fluorophenyl)butanamide], the IC50 in assay [1] and in assay [2] was 0.00736 µM each time.

With `Cc1ccc2[nH]c(-c3ccnc(NC(=O)C(CC(F)F)c4ccc(F)cc4)c3)c(-c3ccccn3)c2n1` (single isomer, unassigned) [Example 5, 4,4-difluoro-2-(4-fluorophenyl)-N-{4-[5-methyl-3-(pyridin-2-yl)-1H-pyrrolo[3,2-b]pyridin-2-yl]pyridin-2-yl}butanamide], the IC50 in assay [1] amounted to 0.00443 µM; in assay [2], 0.119 µM.

Regarding `O=C(Nc1cc(-c2[nH]c3c(OCC(F)(F)F)ncnc3c2-c2ccccn2)ccn1)C(CC(F)(F)F)c1ccc(F)cc1` (single isomer, unassigned) [Example 127, (2R or S)-4,4,4-trifluoro-2-(4-fluorophenyl)-N-{4-[7-(pyridin-2-yl)-4-(2,2,2-trifluoroethoxy)-5H-pyrrolo[3,2-d]pyrimidin-6-yl]pyridin-2-yl}butanamide], the IC50 in assay [1] was 0.085 µM; in assay [2], above 20 µM.

Turning to `O=C(Nc1cc(-c2[nH]c3c(OCC4CC4)ncnc3c2-c2ccccn2)ccn1)C(CC(F)F)c1ccc(F)cc1` (racemic) [Example 128, (2RS)—N-{4-[4-(cyclopropylmethoxy)-7-(pyridin-2-yl)-5H-pyrrolo[3,2-d]pyrimidin-6-yl]pyridin-2-yl}-4,4-difluoro-2-(4-fluorophenyl)butanamide], the figures for the IC50 in assay [1] and in assay [2] were 0.00803 µM and 0.0474 µM, respectively.

For the compound `COc1cnc2c(-c3ccccn3)c(-c3ccnc(NC(=O)C(CC(F)F)c4ccc(F)cc4)c3)[nH]c2n1` (single isomer, unassigned) [Example 102, 4,4-difluoro-2-(4-fluorophenyl)-N-{4-[3-methoxy-7-(pyridin-2-yl)-5H-pyrrolo[2,3-b]pyrazin-6-yl]pyridin-2-yl}butanamide], the IC50 in assay [1] and in assay [2] was 0.0311 µM each time.

`Cc1cc2[nH]c(-c3ccnc(NC(=O)C(CC(F)F)c4ccc(F)cc4)c3)c(-c3ccccn3)c2nc1F` (racemic) [Example 33, (rac)-4,4-difluoro-N-{4-[5-fluoro-6-methyl-3-(pyridin-2-yl)-1H-pyrrolo[3,2-b]pyridin-2-yl]pyridin-2-yl}-2-(4-fluorophenyl)butanamide]: the IC50 in assay [1] and in assay [2] was 0.0195 µM throughout.

With `O=C(Nc1cc(-c2[nH]c3c(OC4CC4)cc(F)nc3c2-c2ccccn2)ccn1)C(CC(F)F)c1ccc(F)cc1` (racemic) [Example 42, (rac)-N-{4-[7-(cyclopropyloxy)-5-fluoro-3-(pyridin-2-yl)-1H-pyrrolo[3,2-b]pyridin-2-yl]pyridin-2-yl}-4,4-difluoro-2-(4-fluorophenyl)butanamide], the IC50 in assay [1] and in assay [2] was 0.00822 µM throughout.

Turning to `COc1cc(F)nc2c(-c3ccccn3)c(-c3ccnc(NC(=O)C(CC(F)F)c4ccc(F)cc4)c3)[nH]c12` (racemic) [Example 39, (rac)-4,4-difluoro-N-{4-[5-fluoro-7-methoxy-3-(pyridin-2-yl)-1H-pyrrolo[3,2-b]pyridin-2-yl]pyridin-2-yl}-2-(4-fluorophenyl)butanamide], the IC50 in assay [1] and in assay [2] was 0.019 µM each time.

`CC(C)(O)c1cc(F)nc2c(-c3ccccn3)c(-c3ccnc(NC(=O)C(CC(F)F)c4ccc(F)cc4)c3)[nH]c12` (single isomer, unassigned) [Example 99, (2R or S)-4,4-difluoro-N-{4-[5-fluoro-7-(2-hydroxypropan-2-yl)-3-(pyridin-2-yl)-1H-pyrrolo[3,2-b]pyridin-2-yl]pyridin-2-yl}-2-(4-fluorophenyl)butanamide]: the IC50 in assay [1] and in assay [2] was 0.00355 µM throughout.

With `Cc1cc2[nH]c(-c3ccnc(NC(=O)C(CC(F)F)c4ccc(F)cc4)c3)c(-c3ccccn3)c2nc1F` (single isomer, unassigned) [Example 35, 4,4-difluoro-N-{4-[5-fluoro-6-methyl-3-(pyridin-2-yl)-1H-pyrrolo[3,2-b]pyridin-2-yl]pyridin-2-yl}-2-(4-fluorophenyl)butanamide], the IC50 in assay [1] and in assay [2] was 0.00269 µM throughout.

Turning to `O=C(Nc1cc(-c2[nH]c3cccnc3c2-c2ccccn2)ccn1)C(CC(F)F)c1ccc(F)cc1` (racemic) [Example 10, 4,4-difluoro-2-(4-fluorophenyl)-N-{4-[3-(pyridin-2-yl)-1H-pyrrolo[3,2-b]pyridin-2-yl]pyridin-2-yl}butanamide], the IC50 came out at 0.00261 µM in assay [1] and 0.00988 µM in assay [2].

Turning to `O=C(Nc1cc(-c2[nH]c3c(OCC(F)F)cc(F)nc3c2-c2ccccn2)ccn1)C(CC(F)F)c1ccc(F)cc1` (single isomer, unassigned) [Example 29, (2R or S)—N-{4-[7-(2,2-difluoroethoxy)-5-fluoro-3-(pyridin-2-yl)-1H-pyrrolo[3,2-b]pyridin-2-yl]pyridin-2-yl}-4,4-difluoro-2-(4-fluorophenyl)butanamide], the IC50 in assay [1] and in assay [2] was 0.00331 µM throughout.

For `O=C(Nc1cc(-c2[nH]c3c(OCC(F)(F)F)ncnc3c2-c2ccccn2)ccn1)C(CC(F)F)c1ccc(F)cc1` (single isomer, unassigned) [Example 124, (2R or S)-4,4-difluoro-2-(4-fluorophenyl)-N-{4-[7-(pyridin-2-yl)-4-(2,2,2-trifluoroethoxy)-5H-pyrrolo[3,2-d]pyrimidin-6-yl]pyridin-2-yl}butanamide], the IC50 in assay [1] was 0.03 µM; in assay [2], 2.18 µM.

In the case of `O=C(Nc1cc(-c2[nH]c3cc(F)cnc3c2-c2ccccn2)ccn1)C(CC(F)F)c1ccc(F)cc1` (single isomer, unassigned; (-)) [Example 18, (−)-4,4-difluoro-2-(4-fluorophenyl)-N-{4-[6-fluoro-3-(pyridin-2-yl)-1H-pyrrolo[3,2-b]pyridin-2-yl]pyridin-2-yl}butanamide], the IC50 in assay [1] is 0.0162 µM; in assay [2], 0.542 µM.

Take `O=C(Nc1cc(-c2[nH]c3ccc(F)nc3c2-c2cc(F)ccn2)ccn1)C(CC(F)F)c1ccc(F)cc1` (single isomer, unassigned) [Example 96, (2R or S)-4,4-difluoro-N-{4-[5-fluoro-3-(4-fluoropyridin-2-yl)-1H-pyrrolo[3,2-b]pyridin-2-yl]pyridin-2-yl}-2-(4-fluorophenyl)butanamide]: the IC50 in assay [1] and in assay [2] was 0.00467 µM each time.

In the case of `O=C(Nc1cc(-c2[nH]c3c(OCC(F)(F)F)ncnc3c2-c2ccccn2)ccn1)C(CC(F)F)c1ccc(F)cc1` (single isomer, unassigned) [Example 123, (2R or S)-4,4-difluoro-2-(4-fluorophenyl)-N-{4-[7-(pyridin-2-yl)-4-(2,2,2-trifluoroethoxy)-5H-pyrrolo[3,2-d]pyrimidin-6-yl]pyridin-2-yl}butanamide], the figures for the IC50 in assay [1] and in assay [2] were 0.0045 µM and 0.014 µM, respectively.

In the case of `O=C(Nc1cc(-c2[nH]c3cc(F)cnc3c2-c2ccccc2)ccn1)C(CC(F)F)c1ccc(F)cc1` (single isomer, unassigned; (-)) [Example 20, (−)-4,4-difluoro-2-(4-fluorophenyl)-N-[4-(6-fluoro-3-phenyl-1H-pyrrolo[3,2-b]pyridin-2-yl)pyridin-2-yl]butanamide], the IC50 in assay [1] came to 0.132 µM; in assay [2], 10.1 µM.

`O=C(Nc1cc(-c2[nH]c3c(OCC(F)(F)F)ncnc3c2-c2ccccn2)ccn1)C(CC(F)(F)F)c1ccc(F)cc1` (single isomer, unassigned) [Example 126, (2R or S)-4,4,4-trifluoro-2-(4-fluorophenyl)-N-{4-[7-(pyridin-2-yl)-4-(2,2,2-trifluoroethoxy)-5H-pyrrolo[3,2-d]pyrimidin-6-yl]pyridin-2-yl}butanamide]: the IC50 came out at 0.00594 µM in assay [1] and 0.02 µM in assay [2].

Take `O=C(Nc1cc(-c2[nH]c3c(OC4CC4)cc(F)nc3c2-c2ccccn2)ccn1)C(CC(F)F)c1ccc(F)cc1` (single isomer, unassigned) [Example 43, N-{4-[7-(cyclopropyloxy)-5-fluoro-3-(pyridin-2-yl)-1H-pyrrolo[3,2-b]pyridin-2-yl]pyridin-2-yl}-4,4-difluoro-2-(4-fluorophenyl)butanamide]: the IC50 in assay [1] and in assay [2] was 0.0102 µM in each case.

For the compound `O=C(Nc1cc(-c2[nH]c3c(C4CCCO4)cc(F)nc3c2-c2ccccn2)ccn1)C(CC(F)F)c1ccc(F)cc1` (racemic) [Example 114, (2RS)-4,4-difluoro-2-(4-fluorophenyl)-N-(4-{5-fluoro-3-(pyridin-2-yl)-7-[(2RS)-tetrahydrofuran-2-yl]-1H-pyrrolo[3,2-b]pyridin-2-yl}pyridin-2-yl)butanamide], the IC50 amounted to 0.00674 µM in assay [1] and 0.037 µM in assay [2].

With `O=C(Nc1cc(-c2[nH]c3c(C4CCCO4)cc(F)nc3c2-c2ccccn2)ccn1)C(CC(F)F)c1ccc(F)cc1` (single isomer, unassigned) [Example 118, (2R or S)-4,4-difluoro-N-(4-{5-fluoro-7-[(2R or S)-oxolan-2-yl]-3-(pyridin-2-yl)-1H-pyrrolo[3,2-b]pyridin-2-yl}pyridin-2-yl)-2-(4-fluorophenyl)butanamide], the values for the IC50 in assay [1] and in assay [2] were 0.0669 µM and 6.66 µM, respectively.
